Assay results: ChEMBL document CHEMBL5226304, “Fused-azepinones: Emerging scaffolds of medicinal importance” (Eur J Med Chem, 2021)
In brackets after ≈: the same amount, converted by molar mass.

Tests used:
HepG2 = assay: Cytotoxicity against human HepG2 cells by MTT assay; format: functional, cell-based
MOLT-3 = assay: Cytotoxicity against human MOLT-3 cells by MTT assay; format: functional, cell-based
Tubulin = assay: Inhibition of tubulin polymerization (unknown origin); format: protein-complex assay, Homo sapiens
A549 = assay: Cytotoxicity against human A549 cells by MTT assay; format: functional, cell-based
P388 = assay: Cytotoxicity against mouse P388 cells; format: functional; settings: read-out: ED50 (the source's name)
[1] = biological target: Cyclin-dependent kinase 1/cyclin B (Homo sapiens, UniProt P06493); assay: Inhibition of CDK1/Cyclin B (unknown origin) in presence of gamma32P-ATP by scintillation counter analysis; format: protein-complex assay
[2] = biological target: Dual specificity mitogen-activated protein kinase kinase 1 (Homo sapiens, UniProt Q02750); assay: Inhibition of MEK1 (unknown origin)
Sequence of Dual specificity mitogen-activated protein kinase kinase 1 (Q02750 whole entry): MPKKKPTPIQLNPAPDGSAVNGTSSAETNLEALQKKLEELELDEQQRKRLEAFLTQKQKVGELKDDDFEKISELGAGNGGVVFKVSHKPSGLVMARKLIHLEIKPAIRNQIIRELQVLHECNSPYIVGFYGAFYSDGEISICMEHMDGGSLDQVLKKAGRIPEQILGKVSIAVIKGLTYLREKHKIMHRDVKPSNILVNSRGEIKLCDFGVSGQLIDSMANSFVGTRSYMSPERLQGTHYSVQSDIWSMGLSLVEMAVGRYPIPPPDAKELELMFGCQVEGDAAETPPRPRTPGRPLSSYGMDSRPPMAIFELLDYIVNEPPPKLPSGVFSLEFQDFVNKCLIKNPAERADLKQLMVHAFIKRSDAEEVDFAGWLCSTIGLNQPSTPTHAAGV

Protein kinase C (PKC) = assay: Inhibition of Protein kinase C (unknown origin); format: protein assay, Homo sapiens
[3] = biological target: Cyclin-dependent kinase 5/CDK5 activator 1 (Homo sapiens, UniProt Q00535); assay: Inhibition of CDK5/p25 (unknown origin); format: protein-complex assay
Sequence of Cyclin-dependent kinase 5/CDK5 activator 1 (Q00535 whole entry): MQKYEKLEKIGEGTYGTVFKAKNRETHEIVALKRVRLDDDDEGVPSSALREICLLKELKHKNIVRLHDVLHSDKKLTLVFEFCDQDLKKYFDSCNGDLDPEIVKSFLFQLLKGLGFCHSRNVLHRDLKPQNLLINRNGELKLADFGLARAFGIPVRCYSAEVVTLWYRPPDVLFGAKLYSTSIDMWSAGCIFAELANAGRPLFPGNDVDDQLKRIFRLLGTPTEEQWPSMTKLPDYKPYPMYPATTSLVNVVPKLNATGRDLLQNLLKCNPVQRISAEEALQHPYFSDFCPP
Sequence of Cyclin-dependent kinase 5/CDK5 activator 1 (Q15078 whole entry, further chain): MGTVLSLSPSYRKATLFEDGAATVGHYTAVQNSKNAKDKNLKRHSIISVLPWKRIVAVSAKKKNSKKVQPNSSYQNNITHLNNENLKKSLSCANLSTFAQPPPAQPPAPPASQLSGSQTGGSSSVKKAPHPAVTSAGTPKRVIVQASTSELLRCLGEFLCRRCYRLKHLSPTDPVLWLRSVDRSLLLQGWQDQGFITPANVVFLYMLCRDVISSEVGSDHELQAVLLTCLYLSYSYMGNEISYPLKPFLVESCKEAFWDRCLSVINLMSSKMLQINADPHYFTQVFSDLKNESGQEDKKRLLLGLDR

L5178Y = assay: Cytotoxicity against mouse L5178Y cells by MTT assay; format: functional, cell-based
Rattus norvegicus [4] = assay: Antiarthritic activity in adjuvant-induced arthritis rat model assessed as reduction in paw swelling at 20 mg/kg, ip administered for day 6 to 10 post adjuvant measured on day 16 to 20 relative to control; format: functional
Rattus norvegicus [5] = assay: Antiarthritic activity in adjuvant-induced arthritis rat model assessed as reduction in paw swelling at 10 mg/kg, ip administered for day 6 to 10 post adjuvant measured on day 16 to 20 relative to control; format: functional
Homo sapiens = organism: Homo sapiens; assay: Selectivity ratio of IC50 for Chk1 (unknown origin) to IC50 for (unknown origin)
MCF7 = assay: Growth inhibition of human MCF7 cells at 1 uM by MTT assay relative to control; format: functional; settings: read-out: GI
Mus musculus = organism: Mus musculus; assay: Neuroprotective activity in Swiss mouse cortical neurons assessed as increase in cell viability in presence of H2O2 at 1 nM relative to control; format: functional
Rattus norvegicus [6] = assay: Hypotensive effect in rat vascular smooth muscles assessed as reduction in arterial blood pressure at 5 mg/kg measured after 15 mins; format: functional; settings: Smooth muscle tissue, 0.25 h

O=C1NCCc2ccccc2-c2c1[nH]c1ccccc21
IC50 (HepG2): 460 nM
IC50 (MOLT-3): 9 nM
IC50 (Tubulin): 7700 nM

Cc1ccc2[nH]c3c(c2c1)CNC(=O)c1[nH]c2ccccc2c1-3
IC50 (A549): 4200 nM

O=C1NC(=O)/C(=C2/CCNC(=O)c3[nH]c(Br)cc32)N1
EC50 (P388): 18 µg/mL (≈ 55.4 µM)

NC1=N/C(=C2/CCNC(=O)c3[nH]ccc32)C(=O)N1 [DEBROMOHYMENIALDISINE]
IC50 [1]: 250 nM
IC50 [2]: 820 nM
IC50 (Protein kinase C (PKC)): < 10000 nM
IC50 [3]: 112 nM
EC50 (L5178Y): 1.8 µg/mL (≈ 7.34 µM)
inhibition in vivo at 20 mg/kg (Rattus norvegicus [4]): > 60%
inhibition in vivo at 10 mg/kg (Rattus norvegicus [5]): 63%
Ratio IC50 (Homo sapiens): 4

O=C1NCc2ccccc2-c2c1sc1ccccc21
inhibition of growth at 1 µM (MCF7): 17%

Nc1nc(C2CCNC(=O)c3[nH]c(Br)c(Br)c32)c[nH]1 (stereo unspecified)
Activity (Mus musculus): 120%
inhibition in vivo at 5 mg/kg (Rattus norvegicus [6]): 90%
